Values quoted from earlier work, collected in patent US6045822A, “Liposome preparations of indolocarbazole derivatives description” (Kyowa Hakko Kogyo Co., Ltd., priority 1996, dated 2000).

Columns and labels:
protein kinase C = conditions: in words; J. Antibiotics., 40, 1782 (1987)
[1] = in words; Cancer Res., 51, 4888 (1991)

CNC1CC2OC(C)(C1OC)n1c3ccccc3c3c4c(c5c6ccccc6n2c5c31)C(=O)NC4O (centres unmarked) [UCN-01]
protein kinase C inhibitory activity (protein kinase C): has protein kinase C inhibitory activity | anti-tumor activity [1]: has anti-tumor activity
